Results taken from patent US9139557B2, “Carboxamide compounds and their use as calpain inhibitors” (Abbott GmbH & Co. KG, priority 2006, dated 2015).

How the values were obtained:
[1] = biological target: T1, cathepsin S (Homo sapiens, UniProt P25774); experiment: Cathepsin S enzyme inhibition in vitro (kinetic fluorescence assay); type: biochemical; conditions: Ki(cathepsin S)/Ki(calpain) ratio
T1 construct: purchased Calbiochem 219343; host or cells: E. coli
Description: (§1) Testing for blockade of the corresponding enzymic activities was carried out by means of kinetic fluorescence assays (excitation 390 nm, emission 460 nm).
(§2) Apparent Ki values were calculated from the experimentally determined IC50 values by the Cheng-Prussoff relation assuming a reversible competitive enzyme inhibition. The Km values of the substrates used under the assay conditions indicated above were: 90 μM (Z-Phe-Arg-AMC, cathepsin B), 10 μM (Z-Gly-Pro-Arg-AMC, cathepsin K), 2 μM (Z-Phe-Arg-AMC, cathepsin L), and 30 μM (Z-Val-Val-Arg-AMC, cathepsin S).
(§3) The indicated Ki values are averages of the inhibition constants calculated on the basis of 2 to 4 independent dose-effect plots.
(§4) • 1. Calpain I: • 20 nM calpain-I—isolated from human erythrocytes (Calbiochem #208713), 100 μM Suc-Leu-Tyr-AMC (Bachem #1-1355) as substrate in buffer with 62 mM imidazole, 0.3 mM CaCl2, 0.10% CHAPS, 0.05% BSA, 1 mM DTT at pH 7.3 and room temperature. • 2. Cathepsin B: • 0.25 nM cathepsin B—isolated from human liver (Calbiochem #219362), 100 μM Z-Phe-Arg-AMC (Bachem #1-1160) as substrate 50 mM MES, 2 mM EDTA, 0.05% Brij 35, 2.5 mM L-cysteine, pH 6.0, room temperature. • 3. Cathepsin K: • 3 nM cathepsin K—activated from recombinant human procathepsin K from E. coli (Calbiochem #342001), 10 μM Z-Gly-Pro-Arg-AMC (Biomol #P-142) as substrate in 50 mM MES, 2 mM EDTA, 0.05% Brij 35, 2.5 mM L-cysteine, pH 6.0, room temperature. • 4. Cathepsin L: • 1 nM cathepsin L—isolated from human liver (Calbiochem #219402), 2 μM Z-Phe-Arg-AMC (Bachem #1-1160) as substrate in 50 mM MES, 2 mM EDTA, 0.05% Brij 35, 2.5 mM L-cysteine, pH 6.0, room temperature. • 5. Cathepsin S: • 0.5 nM recombinant human cathepsin S from E. coli (Calbiochem #219343), 20 μM Z-Val-Val-Arg-AMC (Bachem #1-1540) as substrate in 50 mM MES, 2 mM EDTA, 0.05% Brij 35, 2.5 mM L-cysteine, pH 6.0, room temperature.

[2] = biological target: T2, cathepsin L (Homo sapiens, UniProt P07711); experiment: Cathepsin L enzyme inhibition in vitro (kinetic fluorescence assay); type: biochemical; conditions: Ki(cathepsin L)/Ki(calpain) ratio
T2 construct: cathepsin L—isolated from human liver; purchased Calbiochem 219402; host or cells: human liver (tissue isolate)
T2 sequence (P07711 114-333): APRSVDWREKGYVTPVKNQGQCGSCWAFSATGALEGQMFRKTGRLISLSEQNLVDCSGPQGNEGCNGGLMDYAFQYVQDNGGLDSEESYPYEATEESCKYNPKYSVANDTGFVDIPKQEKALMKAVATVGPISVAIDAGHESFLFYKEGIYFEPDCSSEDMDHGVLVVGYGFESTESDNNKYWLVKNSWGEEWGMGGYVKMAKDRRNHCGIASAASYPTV
Description: as §1, §2, §3, §4

T1 sequence (P25774 115-331): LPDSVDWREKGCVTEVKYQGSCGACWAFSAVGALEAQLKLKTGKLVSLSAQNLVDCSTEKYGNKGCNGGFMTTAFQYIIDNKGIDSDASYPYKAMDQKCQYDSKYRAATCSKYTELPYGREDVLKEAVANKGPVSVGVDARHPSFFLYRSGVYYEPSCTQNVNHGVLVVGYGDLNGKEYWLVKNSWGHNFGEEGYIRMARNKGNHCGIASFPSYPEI

Structure (SMILES): NC(=O)C(=O)C(Cc1ccccc1)NC(=O)c1cccnc1-n1cc(COc2ccccc2)c(-c2ccc(F)cc2)n1 (centres unmarked) [Example 179, N-[3-Amino-2,3-dioxo-1-(phenylmethyl)propyl]-2-{3-(4-fluorophenyl)-4-[(phenyloxy)methyl]-1H-pyrazol-1-yl}pyridine-3-carboxamide]
- Sel cat. S [1]: ++ (++ means a Ki(cathepsin S)/Ki(calpain) ratio of ≧100)
- Sel cat. L [2]: + (+ means 30≦Ki(cathepsin L)/Ki(calpain)<50)

Structure (SMILES): NC(=O)C(=O)C(Cc1ccccc1)NC(=O)c1ccccc1-n1ccc(-c2ccccc2)n1 (centres unmarked) [Example 106, N-[3-Amino-2,3-dioxo-1-(phenylmethyl)propyl]-2-(3-phenyl-1H-pyrazol-1-yl)benzamide]
- Sel cat. S [1]: ++ (++ means a Ki(cathepsin S)/Ki(calpain) ratio of ≧100)
- Sel cat. L [2]: + (+ means 30≦Ki(cathepsin L)/Ki(calpain)<50)

Structure (SMILES): Cl.NC(=O)C(=O)C(Cc1ccccc1)NC(=O)c1cccnc1-n1cnc(-c2ccc(C(F)(F)F)cc2)c1 (centres unmarked) [Example 18, N-(3-Amino-1-benzyl-2,3-dioxopropyl)-2-{4-[4-(trifluoromethyl)phenyl]-1H-imidazol-1-yl}nicotinamide hydrochloride]
- Sel cat. S [1]: ++ (++ means a Ki(cathepsin S)/Ki(calpain) ratio of ≧100)
- Sel cat. L [2]: + (+ means 30≦Ki(cathepsin L)/Ki(calpain)<50)

Structure (SMILES): CN(C)Cc1cn(-c2ncccc2C(=O)NC(Cc2ccccc2)C(=O)C(N)=O)nc1-c1cccc(C(F)(F)F)c1 (centres unmarked) [Example 176, N-[3-Amino-2,3-dioxo-1-(phenylmethyl)propyl]-2-{4-[(dimethylamino)methyl]-3-[3-(trifluoromethyl)phenyl]-1H-pyrazol-1-yl}pyridine-3-carboxamide]
- Sel cat. S [1]: ++ (++ means a Ki(cathepsin S)/Ki(calpain) ratio of ≧100)

Structure (SMILES): CCCCC(NC(=O)c1cccnc1-n1ccc(-c2ccc(N(CC)CC)cc2)n1)C(=O)C(N)=O (centres unmarked) [Example 47, N-{1-[Amino(oxo)acetyl]pentyl}-2-{3-[4-(diethylamino)phenyl]-1H-pyrazol-1-yl}nicotinamide]
- Sel cat. S [1]: ++ (++ means a Ki(cathepsin S)/Ki(calpain) ratio of ≧100)

Structure (SMILES): NC(=O)C(=O)C(Cc1ccccc1)NC(=O)c1cccnc1-n1ccc(-c2ccc(-n3ccnc3)cc2)n1 (centres unmarked) [Example 101, N-[3-Amino-2,3-dioxo-1-(phenylmethyl)propyl]-2-{3-[4-(1H-imidazol-1-yl)phenyl]-1H-pyrazol-1-yl}pyridine-3-carboxamide]
- Sel cat. S [1]: ++ (++ means a Ki(cathepsin S)/Ki(calpain) ratio of ≧100)

Structure (SMILES): NC(=O)C(=O)C(Cc1ccccc1)NC(=O)c1cccnc1-n1cc(-c2ccccc2F)cn1 (centres unmarked) [Example 104, N-[3-Amino-2,3-dioxo-1-(phenylmethyl)propyl]-2-[4-(2-fluorophenyl)-1H-pyrazol-1-yl]pyridine-3-carboxamide]
- Sel cat. S [1]: + (+ means 50≦Ki(cathepsin S)/Ki(calpain)<100)

Structure (SMILES): Cc1cn(-c2ncccc2C(=O)NC(Cc2ccccc2)C(=O)C(N)=O)nc1-c1ccccc1 (centres unmarked) [Example 86, N-[3-Amino-2,3-dioxo-1-(phenylmethyl)propyl]-2-(4-methyl-3-phenyl-1H-pyrazol-1-yl)pyridine-3-carboxamide]
- Sel cat. L [2]: ++ (++ means a Ki(cathepsin L)/Ki(calpain) ratio of ≧50)

Structure (SMILES): COCc1cn(-c2ncccc2C(=O)NC(Cc2ccccc2)C(=O)C(N)=O)nc1-c1ccc(F)cc1 (centres unmarked) [Example 170, N-[3-Amino-2,3-dioxo-1-(phenylmethyl)propyl]-2-{3-(4-fluorophenyl)-4-[(methyloxy)methyl]-1H-pyrazol-1-yl}pyridine-3-carboxamide]
- Sel cat. L [2]: + (+ means 30≦Ki(cathepsin L)/Ki(calpain)<50)

Structure (SMILES): CCCCC(NC(=O)c1cccnc1-n1ccc(-c2ccc(CN(CC)CC)cc2)n1)C(=O)C(N)=O (centres unmarked) [Example 44, N-{1-[Amino(oxo)acetyl]pentyl}-2-(3-{4-[(diethylamino)methyl]phenyl}-1H-pyrazol-1-yl)nicotinamide]
- Sel cat. S [1]: + (+ means 50≦Ki(cathepsin S)/Ki(calpain)<100)

Structure (SMILES): CCN(CC)c1ccc(-c2ccn(-c3ncccc3C(=O)NC(Cc3ccccc3)C(=O)C(N)=O)n2)cc1 (centres unmarked) [Example 42, N-(3-Amino-1-benzyl-2,3-dioxopropyl)-2-{3-[4-(diethylamino)phenyl]-1H-pyrazol-1-yl}nicotinamide]
- Sel cat. S [1]: ++ (++ means a Ki(cathepsin S)/Ki(calpain) ratio of ≧100)

Structure (SMILES): CCN(CC)Cc1ccc(-c2ccn(-c3ncccc3C(=O)NC(Cc3ccccc3)C(=O)C(N)=O)n2)cc1.Cl (centres unmarked) [Example 43, N-(3-Amino-1-benzyl-2,3-dioxopropyl)-2-(3-{4-[(diethylamino)methyl]phenyl}-1H-pyrazol-1-yl)nicotinamide hydrochloride]
- Sel cat. S [1]: ++ (++ means a Ki(cathepsin S)/Ki(calpain) ratio of ≧100)

Structure (SMILES): CCCCC(NC(=O)c1cccnc1-n1cnc(-c2ccccc2)c1)C(=O)C(N)=O (centres unmarked) [Example 2, N-{1-[Amino(oxo)acetyl]pentyl}-2-(4-phenyl-1H-imidazol-1-yl)nicotinamide]
- Sel cat. L [2]: ++ (++ means a Ki(cathepsin L)/Ki(calpain) ratio of ≧50)

Structure (SMILES): NC(=O)C(=O)C(Cc1ccccc1)NC(=O)c1cccnc1-n1cc(CN2CCCC2)c(-c2cccc(C(F)(F)F)c2)n1 (centres unmarked) [Example 178, N-[3-Amino-2,3-dioxo-1-(phenylmethyl)propyl]-2-{4-(pyrrolidin-1-ylmethyl)-3-[3-(trifluoronnethyl)phenyl]-1H-pyrazol-1-yl}pyridine-3-carboxamide]
- Sel cat. S [1]: ++ (++ means a Ki(cathepsin S)/Ki(calpain) ratio of ≧100)

Structure (SMILES): Cl.NC(=O)C(=O)C(Cc1ccccc1)NC(=O)c1cccnc1-n1ccc(-c2cccc(CN3CCOCC3)c2)n1 (centres unmarked) [Example 52, N-(3-Amino-1-benzyl-2,3-dioxopropyl)-2-{3-[3-(morpholin-4-ylmethyl)phenyl]-1H-pyrazol-1-yl}nicotinamide hydrochloride]
- Sel cat. S [1]: ++ (++ means a Ki(cathepsin S)/Ki(calpain) ratio of ≧100)

Structure (SMILES): CCCCC(NC(=O)c1cccnc1-n1ccc(-c2ccc(CN3CCOCC3)cc2)n1)C(=O)C(N)=O (centres unmarked) [Example 45, N-{1-[Amino(oxo)acetyl]pentyl}-2-{3-[4-(morpholin-4-ylmethyl)phenyl]-1H-pyrazol-1-yl}nicotinamide]
- Sel cat. S [1]: + (+ means 50≦Ki(cathepsin S)/Ki(calpain)<100)

Structure (SMILES): NC(=O)C(=O)C(Cc1ccccc1)NC(=O)c1cccnc1-n1cnc(-c2ccc(N3CCOCC3)cc2)c1 (centres unmarked) [Example 14, N-(3-Amino-1-benzyl-2,3-dioxopropyl)-2-[4-(4-morpholin-4-ylphenyl)-1H-imidazol-1-yl]nicotinamide]
- Sel cat. S [1]: ++ (++ means a Ki(cathepsin S)/Ki(calpain) ratio of ≧100)

Structure (SMILES): CCCCC(NC(=O)c1cccnc1-n1ccc(-c2ccccc2)n1)C(=O)C(N)=O (centres unmarked) [Example 6, N-{1-[Amino(oxo)acetyl]pentyl}-2-(3-phenyl-1H-pyrazol-1-yl)nicotinamide]
- Sel cat. S [1]: + (+ means 50≦Ki(cathepsin S)/Ki(calpain)<100)

Structure (SMILES): NC(=O)C(=O)C(Cc1ccccc1)NC(=O)c1cccnc1-n1ccc(-c2ccc(CN3CCOCC3)cc2)n1 (centres unmarked) [Example 46, N-(3-Amino-1-benzyl-2,3-dioxopropyl)-2-{3-[4-(morpholin-4-ylmethyl)phenyl]-1H-pyrazol-1-yl}nicotinamide]
- Sel cat. S [1]: ++ (++ means a Ki(cathepsin S)/Ki(calpain) ratio of ≧100)

Structure (SMILES): NC(=O)C(=O)C(Cc1ccccc1)NC(=O)c1cccnc1-n1cc(CCN2CCOCC2)c(-c2ccc(F)cc2)n1 (centres unmarked) [Example 165, N-[3-Amino-2,3-dioxo-1-(phenylmethyl)propyl]-2-[3-(4-fluorophenyl)-4-(2-morpholin-4-ylethyl)-1H-pyrazol-1-yl]pyridine-3-carboxamide]
- Sel cat. S [1]: ++ (++ means a Ki(cathepsin S)/Ki(calpain) ratio of ≧100)

Structure (SMILES): NC(=O)C(=O)C(Cc1ccccc1)NC(=O)c1cccnc1-n1ccc(-c2ccncc2)n1 (centres unmarked) [Example 65, N-(3-Amino-1-benzyl-2,3-dioxopropyl)-2-(3-pyridin-4-yl-1H-pyrazol-1-yl)nicotinamide]
- Sel cat. S [1]: ++ (++ means a Ki(cathepsin S)/Ki(calpain) ratio of ≧100)

Structure (SMILES): NC(=O)C(=O)C(Cc1ccccc1)NC(=O)c1cccnc1-n1cc(CN2CCOCC2)c(-c2cccc(C(F)(F)F)c2)n1 (centres unmarked) [Example 177, N-[3-Amino-2,3-dioxo-1-(phenylmethyl)propyl]-2-{4-(morpholin-4-ylmethyl)-3-[3-(trifluoromethyl)phenyl]-1H-pyrazol-1-yl}pyridine-3-carboxamide]
- Sel cat. S [1]: ++ (++ means a Ki(cathepsin S)/Ki(calpain) ratio of ≧100)

Structure (SMILES): CCCCC(NC(=O)c1cc(Cl)cnc1-n1cnc(-c2ccccc2)c1)C(=O)C(N)=O.Cl (centres unmarked) [Example 24, N-{1-[Amino(oxo)acetyl]pentyl}-5-chloro-2-(4-phenyl-1H-imidazol-1-yl)nicotinamide hydrochloride]
- Sel cat. L [2]: + (+ means 30≦Ki(cathepsin L)/Ki(calpain)<50)
